{"source": "patent US11427637B2", "about": "“Methods of treating PD-L1 expressing cancer” (Mayo Foundation for Medical Education and Research, priority 2016, dated 2022)", "key": {"[1]": {"test_system": "PD-L1 positive C8161 melanoma tumor cells", "assay": "In vivo efficacy, C8161 melanoma tumors in athymic nude mice", "conditions": "one IV tail vein injection; atezolizumab 18 mg/kg, ABX 45 mg/kg, AA130 = 18 mg/kg atezolizumab and 45 mg/kg ABX", "experimental": "Athymic nude mice (Harlan Sprague Dawley) were injected with 2×10^6 PD-L1 positive C8161 melanoma tumor cells. The tumors were allowed to grow until about 600 mm^3 and were treated by 100 μl IV tail vein injection with saline, atezolizumab alone (18 mg/kg), ABX alone (45 mg/kg) and AA130 (18 mg/kg atezolizumab and 45 mg/kg ABX) one time (FIGS. 5A-5D). Tumor growth was monitored 3 times/week. Tumor size was calculated with the equation: (length×width^2)/2.\nKaplan Meier curves were generated using Graph Pad software. The median survival for each group was 14, 13, 16, and 21.5 days for saline, atezolizumab, ABX and AA130, respectively. Survival differences between AA130 and all other groups were significant with p-values of 0.0008 for saline, 0.0015 for atezolizumab, and 0.0113 for Abraxane."}, "ABX": {"target": "T1, ABX (Homo sapiens, UniProt P02768)", "T1 construct": "purchased Celgene Corp", "assay": "Biolayer interferometry (BLItz) binding of atezolizumab to ABX", "conditions": "biotinylated atezolizumab on streptavidin probe; ABX 100, 500, 1000 μg/mL in 1×PBS; read-out: Kd (binding affinity between atezolizumab and ABX)", "experimental": "To determine whether atezolizumab and ABX are capable of interacting to form nanoparticle complexes, Biolayer interferometry (BLItz) (Forte Bioscience) was performed using streptavidin probes. 100 ug/ml of biotinylated atezolizumab in 1×PBS was bound to the streptavidin probe. After washing unbound atezolizumab from the probe, the antibody-bound probe was exposed to ABX at concentrations of 100, 500, 1000 μg/mL in 1×PBS. An antibody probe exposed to PBS was used as background and background was subtracted. BLItz software was used to calculate dissociation constants (FIG. 1)."}}, "note": "pKd: −log10 of the molar value."}
{"substance": "atezolizumab: fully humanized, Fc-modified monoclonal antibody of IgG1 isotype against PD-L1", "values": [{"measurement": "median survival", "setting": "[1]", "result": 13, "unit": "days"}, {"measurement": "pKd", "setting": "ABX", "result": 8.84}]}
